Test results taken from patent US20100081679A1, “DIAMINOPYRIMIDINES AS FUNGICIDES” (Bayer CropScience AG, priority 2007, published 2010).
Where a name gives a salt, the structure may show the parent alone. Marks after values point to notes of the source that are not given here.

Assay: logP determination via retention times, calibrated with unbranched alkan-2-ones
Type: physicochemical
Details: HPLC on reversed-phase C 18, EEC Directive 79/831 Annex V.A8; method *: 40° C., 0.1% aqueous formic acid and acetonitrile, linear gradient 10% to 95% acetonitrile

Row | logP | Structure (SMILES)
1 | 2.63* | CC1CC(C)CN(c2cccc(Nc3ncc(Br)c(NC4CC4)n3)c2)C1 (centres unmarked) [compound 529]
2 | 2.15* | COc1cc(Nc2ncc(Br)c(NC3CC3)n2)cc(OC)c1 [compound 563]
3 | 2.67* | Clc1ccc(Nc2ncc(Br)c(NCC3CC3)n2)cc1 [compound 474]
4 | 2.7* | N#Cc1ccc(Nc2ncc(Br)c(NCC3CC3)n2)cc1 [compound 475]

Further lines, the compound ahead of its results:

Row | Structure (SMILES) | logP
5 | CCOC(=O)Nc1ccc(Nc2ncc(Br)c(NCC3CC3)n2)cc1O [compound 489] | 1.75*
6 | O=C(c1ccc(Nc2ncc(Br)c(NCC3CC3)n2)cc1)N1CCOCC1 [compound 484] | 1.64*
7 | FC(F)Oc1cccc(Nc2ncc(Cl)c(NC3CC3)n2)c1 [compound 534] | 2.51*
8 | CNC(=O)Oc1cccc(Nc2ncc(Cl)c(NCC3CC3)n2)c1 [compound 514] | 1.61*
9 | CSc1cccc(Nc2ncc(C)c(NC3CC3)n2)c1 [compound 497] | 1.48*
10 | C#Cc1cccc(Nc2ncc(Cl)c(NC3CC3)n2)c1 [compound 502] | 2.24*
11 | Oc1ccc(Nc2ncc(Cl)c(NCC3CC3)n2)cc1F [compound 554] | 1.49*

Same assay, conditions: HPLC on reversed-phase C 18, method **: 43° C.; 0.1% aqueous phosphoric acid and acetonitrile; linear gradient 10% to 95% acetonitrile

Row | Structure (SMILES) | logP
12 | CN(c1nc(Nc2cccc(N3CCCC3=O)c2)ncc1Cl)C1CC1 [compound 769] | 2.22**

Same assay, conditions: HPLC on reversed-phase C18, method *: 40° C., 0.1% aqueous formic acid and acetonitrile, linear gradient 10% to 95% acetonitrile

Row | logP | Structure (SMILES)
13 | 1.17* | Oc1ccc(Nc2ncc(Br)c(NC3CC3)n2)cc1 [compound 114]
14 | 3.9* | FC(F)(F)Sc1ccc(Nc2ncc(Br)c(NC3CC3)n2)cc1 [compound 745]
15 | 1.37* | O=C1OCCN1c1ccc(Nc2ncc(Br)c(NC3CC3)n2)cc1 [compound 175]
16 | 2.54* | CC(C)c1ccc(Nc2ncc(Cl)c(NC3CC3)n2)cc1 [compound 729]
17 | 1.21* | Cc1cc(O)ccc1Nc1ncc(Br)c(NC2CC2)n1 [compound 112]
18 | 1.89* | N#Cc1cnc(Nc2ccc(N3CCCC3=O)cc2)nc1NC1CC1 [compound 157]
19 | 2.79* | CC(C)C1COC(=O)N1c1ccc(Nc2ncc(Cl)c(NC3CC3)n2)cc1 (centres unmarked) [compound 109]
20 | 2.92* | CCSc1cccc(Nc2ncc(Br)c(NC3CC3)n2)c1 [compound 708]
21 | 1.51* | CNS(=O)(=O)Cc1ccc(Nc2ncc(Br)c(NC3CC3)n2)cc1 [compound 757]
22 | 3.49* | CCCSc1cccc(Nc2ncc(Br)c(NC3CC3)n2)c1 [compound 706]
23 | 1.69* | CC(=O)N(C)c1ccc(Nc2ncc(C#N)c(NC3CC3)n2)cc1 [compound 158]
24 | 2.4* | COC(=O)c1ccc(Nc2ncc(Br)c(NC3CC3)n2)cc1 [compound 762]
25 | 1.29* | CN1CC(=O)N(c2ccc(Nc3ncc(Cl)c(NC4CC4)n3)cc2)C1=O [Example 107]

Continued, compound first:

Row | Structure (SMILES) | logP
26 | O=C(c1ccc(Nc2ncc(Cl)c(NCC3CC3)n2)cc1)N1CCOCC1 [compound 696] | 1.59*
27 | Clc1cnc(Nc2ccccc2Sc2ccccc2)nc1NC1CC1 [compound 884] | 3.94*
28 | O=S(=O)(c1cccc(Nc2ncc(Cl)c(NCC3CC3)n2)c1)N1CCCCC1 [compound 675] | 2.16*
29 | FC(F)(F)c1cc(Nc2ncc(Cl)c(NC3CC3)n2)cc(C(F)(F)F)c1 [compound 903] | 4.56*
30 | OC(c1cccc(Nc2ncc(C(F)(F)F)c(NC3CC3)n2)c1)C(F)(F)F (centres unmarked) [compound 666] | 2.69*
31 | CC(=O)Nc1cc(Nc2ncc(Cl)c(NCC3CC3)n2)ccc1C [compound 679] | 1.49*
32 | FC(F)(F)c1ccc(Nc2ncc(Cl)c(NCC3CC3)n2)cc1 [compound 684] | 3.33*
33 | CC(C)(C)OC(=O)NCc1ccc(Nc2ncc(Cl)c(NCC3CC3)n2)cc1 [compound 162] | 2.21*
34 | CN(C)C(=O)c1cccc(Nc2ncc(Cl)c(NC3CC3)n2)c1 [compound 960] | 1.33*
35 | O=C(c1cccc(Nc2ncc(Cl)c(NC3CC3)n2)c1)N1CCCCC1 [compound 770] | 1.94*

Same assay, conditions: HPLC on reversed-phase C18, method *: 40° C.; mobile phase 0.1% aqueous formic acid and acetonitrile; linear gradient 10% to 95% acetonitrile

Row | logP | Structure (SMILES)
36 | 2.55* | Clc1cnc(Nc2ccc(Br)cc2)nc1NC1CC1 [compound 281]
37 | 2.06* | CCN(C(=O)OC)c1ccc(Nc2ncc(Br)c(NC3CC3)n2)cc1 [compound 303]
38 | 1.81* | CCCNS(=O)(=O)Cc1cccc(Nc2ncc(Cl)c(NC3CC3)n2)c1 [compound 335]

Second part, the compound before the results:

Row | Structure (SMILES) | logP
39 | CCOC(=O)C1(Nc2nc(Nc3cccc(Cl)c3)ncc2Cl)CC1 [compound 316] | 3.13*
40 | FC1(F)Oc2ccc(Nc3ncc(Cl)c(NC4CC4)n3)cc2OC1(F)F [compound 289] | 3.76*
41 | CSc1ccc(Nc2ncc(Cl)c(NC3CC3)n2)cc1C(F)(F)F [compound 322] | 3.48*
42 | Clc1cnc(Nc2cccc(-c3nccs3)c2)nc1NC1CC1 [compound 297] | 2.21*

Same assay, conditions: HPLC on reversed-phase C18 column (EEC Directive 79/831 Annex V.A8); method *: 40° C.; 0.1% aqueous formic acid and acetonitrile; linear gradient 10% to 95% acetonitrile

Row | Structure (SMILES) | logP
43 | CN(C)S(=O)(=O)Oc1cccc(Nc2ncc(Cl)c(NC3CC3)n2)c1 [compound 244] | 2.26*
44 | CC(C)(C)NC(=O)c1ccc(Nc2ncc(C(F)(F)F)c(NCC3CC3)n2)cc1 [compound 207] | 3.07*
45 | CN(C)C(=O)c1ccc(Nc2ncc(C(F)(F)F)c(NCC3CC3)n2)cc1 [compound 206] | 2.13*

Same assay, conditions: HPLC reversed-phase C 18, EEC Directive 79/831 Annex V.A8; method **: 43° C., 0.1% aqueous phosphoric acid and acetonitrile, linear gradient 10% to 95% acetonitrile

Row | Structure (SMILES) | logP
46 | CON(C(C)=O)c1cccc(Nc2ncc(Br)c(NC3CC3)n2)c1 [compound 849] | 1.68**
47 | Cc1nc(Nc2ccc(N3CCOC3=O)cc2)nc(NC2CC2)c1Cl [compound 840] | 1.31**

Same assay, conditions: HPLC reversed-phase C 18, EEC Directive 79/831 Annex V.A8; method *: 40° C., 0.1% aqueous formic acid and acetonitrile, linear gradient 10% to 95% acetonitrile

Row | logP | Structure (SMILES)
48 | 1* | CC(=O)Nc1ccc(Nc2ncc(Cl)c(NC3CC3)n2)cc1O [compound 822]
49 | 2.25* | CCCS(=O)(=O)c1cccc(Nc2ncc(Cl)c(NC3CC3)n2)c1 [compound 852]

The next lines start with the compound.

Row | Structure (SMILES) | logP
50 | O=C1COCCN1c1cccc(Nc2ncc(Cl)c(NC3CC3)n2)c1 [compound 791] | 1.2*
51 | O=C1CCCCN1c1cccc(Nc2ncc(C(F)(F)F)c(NC3CC3)n2)c1 [compound 803] | 2.18*
52 | CC(C)(C)NC(=O)c1cccc(Nc2ncc(Cl)c(NC3CC3)n2)c1 [compound 831] | 2.07*
53 | ClC1(Cl)CC1CNc1nc(Nc2ccccc2)ncc1Br (centres unmarked) [compound 808] | 2.6*

Same assay, conditions: method **: HPLC reversed-phase C 18, 43° C., 0.1% aqueous phosphoric acid and acetonitrile, linear gradient 10% to 95% acetonitrile

Row | Structure (SMILES) | logP
54 | Clc1cccc(Nc2ncc(Cl)c(NCC3CC3)n2)c1 [compound 9] | 2.7**

Same assay, conditions: method **: HPLC, reversed-phase C 18, 43° C., mobile phase 0.1% aqueous phosphoric acid and acetonitrile, linear gradient from 10% to 95% acetonitrile

Row | Structure (SMILES) | logP
55 | Clc1cnc(Nc2cccc(CBr)c2)nc1NC1CC1 [compound 1023] | 2.31**
56 | COc1ccc(CN(c2nc(Nc3cccc(SC)c3)ncc2Cl)C2CC2)cc1 [compound 1026] | 4.78**

Same assay, conditions: method *: HPLC reversed-phase C18, 40° C., 0.1% aqueous formic acid and acetonitrile, linear gradient 10% to 95% acetonitrile

Row | Structure (SMILES) | logP
57 | COC(=O)Nc1ccc(Nc2ncc(Br)c(NC3CC3)n2)cc1Cl [compound 430] | 2.2*
58 | CCN(C(C)=O)c1ccc(Nc2ncc(Br)c(NC3CC3)n2)cc1 [compound 380] | 1.73*
59 | O=S(=O)(Cc1cccc(Nc2ncc(Cl)c(NC3CC3)n2)c1)NC1CC1 [compound 372] | 1.59*
60 | CC(C)(C)C(=O)Nc1ccc(Nc2ncc(Cl)c(NC3CC3)n2)cc1 [Example 72] | 1.81*
61 | CC(=O)N(c1ccc(Nc2ncc(Cl)c(NC3CC3)n2)cc1)C1CC1 [Example 63] | 1.62*
62 | CSc1ccc(Nc2ncc(Cl)c(NC3CC3)n2)cc1Cl [compound 377] | 2.84*
63 | Cc1cnc(Nc2ccccc2)nc1NC1CC1 [Example 51] | 1.5*
64 | O=C1CCC(=O)N1c1cccc(Nc2ncc(Br)c(NC3CC3)n2)c1 [compound 447] | 1.38*

Same assay, conditions: method *: HPLC reversed-phase C 18, temperature 40° C.; mobile phase 0.1% aqueous formic acid and acetonitrile; linear gradient 10% to 95% acetonitrile

Row | Structure (SMILES) | logP
65 | CNC(=O)c1cccc(Nc2ncc(C#N)c(NC3CC3)n2)c1 [compound 608] | 1.64*
66 | CC(C)(C)C(=O)Nc1ccc(Nc2ncc(C(F)(F)F)c(NC3CC3)n2)cc1 [compound 647] | 2.46*
67 | O=C(NCC(F)(F)F)c1cccc(Nc2ncc(Br)c(NC3CC3)n2)c1 [compound 622] | 1.91*
68 | CNC(=O)c1cccc(Nc2ncc(F)c(NC3CC3)n2)c1 [compound 585] | 1.05*
69 | O=C(NC1CC1)c1cccc(Nc2ncc(Cl)c(NC3CC3)n2)c1 [compound 629] | 1.39*
70 | COC(=O)Cc1cccc(Nc2ncc(C#N)c(NC3CC3)n2)c1 [compound 606] | 2.39*

Same assay, conditions: method *: HPLC, reversed-phase C 18, 40° C., mobile phase 0.1% aqueous formic acid and acetonitrile, linear gradient from 10% to 95% acetonitrile

Row | Structure (SMILES) | logP
71 | FC(F)(F)c1cc(Br)cc(Nc2ncc(Cl)c(NC3CC3)n2)c1 [compound 998] | 4.6*
72 | CCc1cccc(Nc2ncc(C(F)(F)F)c(NC3CC3)n2)c1 [compound 1034] | 3.67*
73 | Clc1cnc(Nc2cccc(OCCN3CCOCC3)c2)nc1NC1CC1 [compound 1040] | 0.84*

Same assay, conditions: pH 2.3; read-out: logP (pH2.3)

Row | Structure (SMILES) | chromatographic logP
74 | Ic1cnc(Nc2ccccc2)nc1NC1CC1 [N^4-Cyclopropyl-5-iodo-N^2-phenylpyrimidine-2,4-diamine] | 1.82
75 | CC(Nc1nc(Cl)ncc1Cl)C1CC1 (centres unmarked) [2,5-dichloro-N-(1-cyclopropylethyl)pyrimidine-4-amine] | 2.97
76 | CC(C)Oc1ccc(Nc2ncc(Cl)c(NCC3CC3)n2)cc1 [Example 55, 5-Chloro-N^4-(cyclopropylmethyl)-N^2-(4-isopropoxyphenyl)pyrimidine-2,4-diamine hydrochloride] | 2.11

Same assay, conditions: reversed-phase C18 HPLC column; method **: HPLC reversed-phase C 18, 43° C., 0.1% aqueous phosphoric acid and acetonitrile, linear gradient 10% to 95% acetonitrile; read-out: logP

Row | Structure (SMILES) | chromatographic logP
77 | CC(C)Oc1ccc(Nc2ncc(Cl)c(NCC3CC3)n2)cc1 [Example 55, 5-Chloro-N^4-(cyclopropylmethyl)-N^2-(4-isopropoxyphenyl)pyrimidine-2,4-diamine hydrochloride] | 2.11
